One assay concerns the target Cbl-b (Homo sapiens (Human), UniProt Q13191). The experiment in a line: Cbl-b displacement assay (Cbl-b inhibition assay), Biological Example 1. The class given is binding. As to the method:
The ability of candidate compounds to displace a known inhibitor and thereby inhibit Cbl-b activity was measured by monitoring the interaction of Cbl-b with a fluorophore-labeled probe in the presence of the candidate compound.
Following the one hour incubation, the plates were read for TR-FRET signal at 520/620 nm using an Envision plate reader (Perkin Elmer).

The subject of assay [1] is primary human total T-cells. The experiment in a line: Primary human total T-cell activation (IL-2 secretion, CD25 surface staining), Biological Example 2. The settings on record: fold change over baseline; for CD25 staining CD3/CD28 0.3 μM / IL-2 secretion CD3/CD28 0.3 μM: 0.3 μM inhibitor; for CD25 staining CD3/CD28 0.3 μM / IL-2 secretion CD3/CD28 0.3 μM / CD25 staining CD3/CD28 1 μM / IL-2 secretion CD3/CD28 1 μM: anti-CD3 and anti-CD28 co-stimulation; for CD25 staining CD3/CD28 1 μM / IL-2 secretion CD3/CD28 1 μM / CD25 staining CD3 1 μM / IL-2 secretion CD3 1 μM: 1 μM inhibitor; for CD25 staining CD3 1 μM / IL-2 secretion CD3 1 μM / CD25 staining CD3 3 μM / IL-2 secretion CD3 3 μM: anti-CD3 stimulation alone; for CD25 staining CD3 3 μM / IL-2 secretion CD3 3 μM: 3 μM inhibitor.

Assay [2] relates to primary human total T-cells. The assay is described as follows: Primary human total T-cell activation (IL-2 secretion, CD25 surface staining), Biological Example 9. The settings on record: fold change over baseline, Table 9-1.
Experimental: Peripheral blood mononuclear cells (PBMC) were obtained either: 1) by using Ficoll-Paque™ (GE Healthcare) for separation of peripheral blood hematopoietic cells from buffy coats of healthy human donors; or 2) directly from LeukoPak donations. […] The cells were rested overnight at 37° C. 5% CO2. The Cbl-inhibitor was added to 1×10^5 cells per well and the plate was incubated for one hour at 37° C. in 5% CO2 at the concentrations indicated (Table 9-1) with a final DMSO concentration of <0.1%. For samples stimulated with anti-CD3 antibody and anti-CD28 antibody (anti-CD3/anti-CD28), the Cbl-b inhibitor concentrations tested were 1 μM, and 0.3 μM. For samples stimulated with anti-CD3 antibody alone (anti-CD3), the Cbl-b inhibitor concentrations tested were 3 μM, and 1 μM. […] To prepare plates with plate bound anti-CD3 antibody (OKT3), 96-well round bottom tissue culture plates were coated with 100 μL of anti-CD3 antibody (OKT3) at 10 μg/mL for 4 hours at 37° C. 5% CO2 in phosphate buffered saline (PBS). […] Cells were stimulated for 48 hours prior to harvesting the cell free supernatant and staining the cell population for surface marker assessment by flow cytometry. Supernatants were analyzed for cytokine secretion, including IL-2 by ELISA (R&D Systems, Peprotech or Life Technologies) or Luminex multiplex kits (Procarta Life Technologies) following the manufacturer's protocol. Cells were stained with anti-CD25 antibody (BD Biosciences) to assess levels of surface marker of activation.
Readouts were reported as fold change over baseline. Baseline for this study was the measurement obtained from total human T-cells stimulated with anti-CD3 antibody and with soluble anti-CD28 antibody, wherein the cells were not incubated with a Cbl-b inhibitor (Table 9-1). […] For T-cells stimulated with anti-CD3 alone, changes greater than 0.1-fold over baseline for IL-2 secretion and greater than 0.6-fold over baseline for CD25 surface staining were considered significant and a positive response.
Assay [3] concerns primary human total T-cells. The assay is described as follows: Primary human total T-cell activation (IL-2 secretion, CD25 surface staining), Biological Example 12. The settings on record: fold change over baseline, Table 12-1.
Experimental: Peripheral blood mononuclear cells (PBMC) were obtained either: 1) by using Ficoll-Paque™ (GE Healthcare) for separation of peripheral blood hematopoietic cells from buffy coats of healthy human donors; or 2) directly from LeukoPak donations. […] The cells were rested overnight at 37° C. 5% CO2. The Cbl-inhibitor was added to 1×10^5 cells per well and the plate was incubated for one hour at 37° C. in 5% CO2 at the concentrations indicated (Table 12-1) with a final DMSO concentration of <0.1%. For samples stimulated with anti-CD3 antibody and anti-CD28 antibody (anti-CD3/anti-CD28), the Cbl-b inhibitor concentrations tested were 1 μM, and 0.3 μM. For samples stimulated with anti-CD3 antibody alone (anti-CD3), the Cbl-b inhibitor concentrations tested were 3 μM, and 1 μM. […] To prepare plates with plate bound anti-CD3 antibody (OKT3), 96-well round bottom tissue culture plates were coated with 100 μL of anti-CD3 antibody (OKT3) at 10 μg/mL for 4 hours at 37° C. 5% CO2 in phosphate buffered saline (PBS). […] Cells were stimulated for 48 hours prior to harvesting the cell free supernatant and staining the cell population for surface marker assessment by flow cytometry. Supernatants were analyzed for cytokine secretion, including IL-2 by ELISA (R&D Systems, Peprotech or Life Technologies) or Luminex multiplex kits (Procarta Life Technologies) following the manufacturer's protocol. Cells were stained with anti-CD25 antibody (BD Biosciences) to assess levels of surface marker of activation.
Readouts were reported as fold change over baseline. Baseline for this study was the measurement obtained from total human T-cells stimulated with anti-CD3 antibody and with soluble anti-CD28 antibody, wherein the cells were not incubated with a Cbl-b inhibitor (Table 12-1). […] For T-cells stimulated with anti-CD3 alone, changes greater than 0.1-fold over baseline for IL-2 secretion and greater than 0.6-fold over baseline for CD25 surface staining were considered significant and a positive response.
The mark [4] stands for this setting: 0.125 nM Cbl-b final concentration (Low), read-out: Cbl-b activity IC50 (Low).
[5] abbreviates: 0.3 μM inhibitor, anti-CD3 and anti-CD28 co-stimulation.
The mark [6] stands for this setting: 1 μM inhibitor, anti-CD3 and anti-CD28 co-stimulation.
[7] abbreviates: 1 μM inhibitor, anti-CD3 stimulation alone.
Setting [8] is: 3 μM inhibitor, anti-CD3 stimulation alone.

In general, IC50 refers to the concentration at which inhibition is half-maximal.

Like-named read-outs stand apart in the source and are kept apart here.

Sequence of Cbl-b (Q13191 36-427): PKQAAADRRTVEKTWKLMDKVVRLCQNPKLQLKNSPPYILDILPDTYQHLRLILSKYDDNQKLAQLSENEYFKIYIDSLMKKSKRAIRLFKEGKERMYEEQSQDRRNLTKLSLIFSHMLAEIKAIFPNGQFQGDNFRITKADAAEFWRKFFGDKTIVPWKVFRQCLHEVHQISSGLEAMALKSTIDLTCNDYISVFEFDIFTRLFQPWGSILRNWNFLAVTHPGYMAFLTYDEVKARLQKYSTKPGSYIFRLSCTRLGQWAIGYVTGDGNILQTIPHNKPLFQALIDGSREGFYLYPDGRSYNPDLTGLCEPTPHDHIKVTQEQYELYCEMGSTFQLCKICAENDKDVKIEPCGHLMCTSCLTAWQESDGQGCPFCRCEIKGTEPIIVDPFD

`C[C@@H]1CN(Cc2cc3c(c(C(F)(F)F)c2)CN(c2cccc([C@H](c4nncn4C)C4CCC4)c2)C3=O)CCO1` [Compound 17, 2-(3-((R)-cyclobutyl(4-methyl-4H-1,2,4-triazol-3-yl)methyl)phenyl)-6-(((R)-2-methylmorpholino)methyl)-4-(trifluoromethyl)isoindolin-1-one]: the IC50 on Cbl-b (setting [4]) is under 5 nM. Moreover, in assay [1], the “CD25 staining CD3/CD28 0.3 μM” value was “B (B indicates 1.24-1.39 fold)”. In addition, the “IL-2 secretion CD3/CD28 0.3 μM” value in assay [1] is “B (B indicates 20-35 fold)”; in assay [2] (setting [5]) it was “B (B indicates 10-15 fold)”; in assay [3] (setting [5]) it was “B (B indicates 11-15 fold)”. Besides, the “CD25 staining CD3/CD28 1 μM” value in assay [1] was “B (B indicates 1.24-1.39 fold)”. Further, the “IL-2 secretion CD3/CD28 1 μM” value in assay [1] is listed as “A (A indicates >35 fold)”; in assay [2] (setting [6]), “A (A indicates >15 fold)”; in assay [3] (setting [6]), “A (A indicates >15 fold)”. Further, in assay [1], the “CD25 staining CD3 1 μM” value was “B (B indicates 1.5-2.5 fold)”. For the same molecule, the “IL-2 secretion CD3 1 μM” value in assay [1] is recorded as “A (A indicates >1.1 fold)”; in assay [2] (setting [7]), “A (A indicates >0.66 fold)”; in assay [3] (setting [7]) it was “A (A indicates >0.66 fold)”. Besides, the entries for the “CD25 staining CD3 3 μM” value in assay [1], in assay [2] (setting [8]) and in assay [3] (setting [8]) were “B (B indicates 1.5-2.5 fold)”, “B (B indicates 1.05-1.14 fold)” and “B (B indicates 1.05-1.14 fold)”, respectively. Also, the “IL-2 secretion CD3 3 μM” value is on record as “A (A indicates >1.1 fold)” in assay [1], “A (A indicates >0.66 fold)” in assay [2] (setting [8]) and “A (A indicates >0.66 fold)” in assay [3] (setting [8]).

Take `C[C@@H]1CN(Cc2cc3c(c(C(F)(F)F)c2)CN(c2cccc([C@@H](c4nncn4C)C4CCC4)c2)C3=O)CCO1` [Compound 15, 2-(3-((S)-cyclobutyl(4-methyl-4H-1,2,4-triazol-3-yl)methyl)phenyl)-6-(((R)-2-methylmorpholino)methyl)-4-(trifluoromethyl)isoindolin-1-one]: the IC50 on Cbl-b (setting [4]) lay in the range of 5 to 20 nM. The IC50 on Cbl-b (read-out: IC50 values in the Cbl-b inhibition assay of Biological Example 1) fell in the range of 5 to 20 nM. Also, in assay [1], the “CD25 staining CD3/CD28 0.3 μM” value is reported as “B (B indicates 1.24-1.39 fold)”, the “IL-2 secretion CD3/CD28 0.3 μM” value is recorded as “C (C indicates <20 fold)”, the “CD25 staining CD3/CD28 1 μM” value is given as “B (B indicates 1.24-1.39 fold)” and the “IL-2 secretion CD3/CD28 1 μM” value is “C (C indicates <20 fold)”. Moreover, in assay [1], the “CD25 staining CD3 1 μM” value is listed as “C (C indicates <1.5 fold)”, the “IL-2 secretion CD3 1 μM” value is listed as “C (C indicates <0.70 fold)”, the “CD25 staining CD3 3 μM” value is “C (C indicates <1.5 fold)” and the “IL-2 secretion CD3 3 μM” value is reported as “C (C indicates <0.70 fold)”.

`C[C@@H]1CN(Cc2cc3c(c(C(F)(F)F)c2)CN(c2cccc(C4(c5nncn5C)CC(F)(F)C4)c2)C3=O)CCO1` [Compound 53, 2-{3-[3,3-difluoro-1-(4-methyl-1,2,4-triazol-3-yl)cyclobutyl]phenyl}-6-{[(2R)-2-methylmorpholin-4-yl]methyl}-4-(trifluoromethyl)-3H-isoindol-1-one]: the IC50 on Cbl-b (setting [4]) was under 5 nM. In assay [1], the “IL-2 secretion CD3/CD28 0.3 μM” value is “A (A indicates >35 fold)”, the “IL-2 secretion CD3/CD28 1 μM” value was “A (A indicates >35 fold)”, the “CD25 staining CD3 1 μM” value is “A (A indicates >2.5 fold)” and the “IL-2 secretion CD3 1 μM” value is “A (A indicates >1.1 fold)”. Besides, in assay [1], the “CD25 staining CD3 3 μM” value is given as “A (A indicates >2.5 fold)” and the “IL-2 secretion CD3 3 μM” value is “A (A indicates >1.1 fold)”.

As for `CO[C@H]1C[C@@](c2cccc(N3Cc4c(cc(CN5CCC(F)(F)[C@H](C)C5)cc4C(F)(F)F)C3=O)c2)(c2nncn2C)C1` [Compound 33, 6-(((R)-4,4-difluoro-3-methylpiperidin-1-yl)methyl)-2-(3-((1s,3S)-3-methoxy-1-(4-methyl-4H-1,2,4-triazol-3-yl)cyclobutyl)phenyl)-4-(trifluoromethyl)isoindolin-1-one], the IC50 on Cbl-b (setting [4]) lay in the range of 5 to 20 nM. Besides, in assay [1], the “CD25 staining CD3/CD28 0.3 μM” value was “B (B indicates 1.24-1.39 fold)”, the “IL-2 secretion CD3/CD28 0.3 μM” value is on record as “C (C indicates <20 fold)”, the “IL-2 secretion CD3/CD28 1 μM” value is “B (B indicates 20-35 fold)” and the “CD25 staining CD3 1 μM” value is “A (A indicates >2.5 fold)”. Further, in assay [1], the “IL-2 secretion CD3 1 μM” value was “A (A indicates >1.1 fold)”, the “CD25 staining CD3 3 μM” value is “A (A indicates >2.5 fold)” and the “IL-2 secretion CD3 3 μM” value is recorded as “A (A indicates >1.1 fold)”.

Regarding `C[C@@H]1CN(Cc2cc3c(c(C(F)(F)F)c2)CN(c2cccc(C4(c5nncn5C)COC4)c2)C3=O)CCC1(F)F` [Compound 47, 6-[[(3R)-4,4-difluoro-3-methyl-1-piperidyl]methyl]-2-[3-[3-(4-methyl-1,2,4-triazol-3-yl)oxetan-3-yl]phenyl]-4-(trifluoromethyl)isoindolin-1-one], the IC50 at Cbl-b (setting [4]) was under 5 nM. Further, in assay [1], the “IL-2 secretion CD3/CD28 0.3 μM” value was “A (A indicates >35 fold)”, the “IL-2 secretion CD3/CD28 1 μM” value was “A (A indicates >35 fold)”, the “CD25 staining CD3 1 μM” value is “B (B indicates 1.5-2.5 fold)” and the “IL-2 secretion CD3 1 μM” value is “B (B indicates 0.70-1.1 fold)”. Besides, in assay [1], the “CD25 staining CD3 3 μM” value is on record as “B (B indicates 1.5-2.5 fold)” and the “IL-2 secretion CD3 3 μM” value is given as “C (C indicates <0.70 fold)”.

As for `CC[C@H]1CN(Cc2cc3c(c(C(F)(F)F)c2)CN(c2cccc([C@]4(c5nncn5C)C[C@@H](C)C4)c2)C3=O)CCO1` [Compound 27, 6-(((S)-2-ethylmorpholino)methyl)-2-(3-((1s,3R)-3-methyl-1-(4-methyl-4H-1,2,4-triazol-3-yl)cyclobutyl)phenyl)-4-(trifluoromethyl)isoindolin-1-one], the IC50 at Cbl-b (setting [4]) lay within 5 to 20 nM. Also, in assay [1], the “CD25 staining CD3/CD28 0.3 μM” value is “B (B indicates 1.24-1.39 fold)”, the “IL-2 secretion CD3/CD28 0.3 μM” value is given as “C (C indicates <20 fold)”, the “IL-2 secretion CD3/CD28 1 μM” value was “B (B indicates 20-35 fold)” and the “CD25 staining CD3 1 μM” value is on record as “C (C indicates <1.5 fold)”. Also, in assay [1], the “IL-2 secretion CD3 1 μM” value was “C (C indicates <0.70 fold)”, the “CD25 staining CD3 3 μM” value is given as “C (C indicates <1.5 fold)” and the “IL-2 secretion CD3 3 μM” value is “C (C indicates <0.70 fold)”.

On to `Cc1cc(C(=O)Nc2cccc([C@H](c3nncn3C)C3CCC3)c2)nc(C2CC2)n1` [Compound 13, (R)—N-(3-(cyclobutyl(4-methyl-4H-1,2,4-triazol-3-yl)methyl)phenyl)-2-cyclopropyl-6-methylpyrimidine-4-carboxamide], for which the IC50 on Cbl-b (0.5 nM Cbl-b final concentration (High), read-out: Cbl-b activity IC50 (High)) is over 100 nM. Besides, in assay [1], the “IL-2 secretion CD3/CD28 0.3 μM” value was “C (C indicates <20 fold)”, the “IL-2 secretion CD3/CD28 1 μM” value is recorded as “C (C indicates <20 fold)”, the “CD25 staining CD3 1 μM” value is given as “C (C indicates <1.5 fold)” and the “CD25 staining CD3 3 μM” value is recorded as “C (C indicates <1.5 fold)”.

With `C[C@@H]1CN(Cc2cc3c(c(C(F)(F)F)c2)CN(c2cccc([C@]4(c5nncn5C)C[C@@H](C)C4)c2)C3=O)CCO1` [Compound 24, 2-(3-((1s,3S)-3-methyl-1-(4-methyl-4H-1,2,4-triazol-3-yl)cyclobutyl)phenyl)-6-(((R)-2-methylmorpholino)methyl)-4-(trifluoromethyl)isoindolin-1-one], the IC50 on Cbl-b (setting [4]) is 20 to 100 nM. In addition, in assay [1], the “IL-2 secretion CD3/CD28 0.3 μM” value is “C (C indicates <20 fold)”, the “IL-2 secretion CD3/CD28 1 μM” value was “C (C indicates <20 fold)”, the “CD25 staining CD3 1 μM” value is on record as “C (C indicates <1.5 fold)” and the “IL-2 secretion CD3 1 μM” value is on record as “C (C indicates <0.70 fold)”. In assay [1], the “CD25 staining CD3 3 μM” value is “C (C indicates <1.5 fold)” and the “IL-2 secretion CD3 3 μM” value is “C (C indicates <0.70 fold)”.

The values above are taken from US12234230B2, “Substituted benzyl-triazole compounds for Cbl-b inhibition, and further uses thereof” (Nurix Therapeutics, Inc., priority 2019, dated 2025).
